This is an account of results in patent US11957767B2, “Compound targeting prostate specific membrane antigen, and preparation method and application thereof” (YANTAI LANNACHENG BIOTECHNOLOGY CO., LTD., priority 2021, dated 2024).

For series [1], the system named is subcutaneous transplanted tumor, prostate cancer (22RV1). In words: Uptake of 177Lu labeled complex in subcutaneous transplanted tumor model mice with prostate cancer (tumor uptake and tissue distribution). Conditions: 24 h after intravenous tail injection of 5 MBq; 22RV1 tumor model mice; FIG. 1. The class given is in vivo. The protocol: The compound in Example 31 or another prior radioactive probe targeting PSMA was injected into subcutaneous transplanted tumor model mice with prostate cancer, and uptake results in tumors and distribution results in tissues were compared. A specific plan is as follows.
The subcutaneous transplanted tumor model mice with prostate cancer (22RV1) were randomly divided into 3 groups including an experimental group, a control group A and a control group B with 3 mice in each group.
[…] complex with purity of greater than 95% was prepared according to the method in Example 31. The complex is obtained by labeling compound 10 in Example 1 with ^177Lu, which was used as medicine B for the experimental group in the experiment. […]
5 MBq of medicine B, the medicine A and the medicine C were intravenously injected into tails of the mice in the experimental group, the control group A and the control group B, respectively. […] The obtained tissues were weighed, and measured by a y counter to obtain the radioactive counting of samples in the experimental group, the control group A and the control group B. Measured data were subtracted from the background, the decay time was corrected, and then average values were obtained. The data was expressed as the percentage of injected dose per gram tissue (% ID/g) of the dose uptake in tissues per gram in the injected dose.

Series [2] deals with PSMA positive lesions. The conditions noted are these: human, in vivo; cited from earlier work.

`O=C([O-])CN1CCN(CC(=O)[O-])CCN(CC(=O)NCC2CCC(C(=O)N[C@@H](Cc3ccc4ccccc4c3)C(=O)NCCCC[C@H](NC(=O)N[C@@H](CCC(=O)O)C(=O)O)C(=O)O)CC2)CCN(CC(=O)[O-])CC1.[177Lu+3]` (some centres unmarked) [^177Lu-PSMA 617] had an uptake in tumors in series [1] of 7.60±1.22 % ID/g. In addition, in series [2], the “patients with no response to therapy” value is given as “About 30%”.
